Measured values from US12252457B2, “Compositions and methods for reducing tactile dysfunction, anxiety, and social impairment” (President and Fellows of Harvard College, priority 2018, dated 2025).
Entries after “also recorded” stand apart in the source; their conditions may differ. Where a name gives a salt, the structure may show the parent alone.

How the values were obtained:
[1] = test system: mutant mice (Advillin^Cre; Mecp2^f/y, Advillin^Cre; Shank3^f/f, Advillin^Cre; Gabrb3^f/+, Advillin^Cre; Gabrb3^f/f); assay: Tactile prepulse inhibition (PPI) assay and response to air puff alone, acute Compound 5; assay type: in vivo, mouse; details: 2 mg/kg i.p.
Method: FIG. 1 is a graph showing percent inhibition of an acoustic startle response (PPI) to a 125-dB noise (pulse), when the startle noise was preceded by a light air puff (prepulse, 0.9 PSI, 50 ms) at an interstimulus interval of 250 ms. Values are expressed as percent of control littermates' performance. Experiments were performed in mutant mice (Advillin^Cre; Mecp2^f/y, Advillin^Cre; Shank3^f/f) and control littermates, 30 minutes after an intraperitoneal injection of either saline (vehicle) the peripherally restricted Compound 5 (2 mg/kg). Two-way ANOVA, with post-hoc Holm-Sidak's test, *, p<0.05, when comparing mutants to control within same treatment; I, p<0.05, or p<0.10, when comparing the same genotype across different treatments.
FIG. 2 is a graph showing response to a light air puff stimulus alone (0.9 PSI, 50 ms). Responses are expressed as a percent of startle response to a 125-B noise. Experiments were performed in mutant mice (Advillin^Cre; Mecp2^f/y, Advillin^Cre; Shank3^f/f) and control littermates, 30 minutes after an intraperitoneal injection of either saline (vehicle) the peripherally restricted Compound 5 (2 mg/kg). Two-way ANOVA, with post-hoc Holm-Sidak's test, *, p<0.05, when comparing mutants to control within same treatment; I, p<0.05, when comparing the same genotype across different treatments.
FIG. 3 is a graph showing magnitude of startle response to a 125-dB noise. Experiments were performed in mutant mice (Advillin^Cre; Mecp2^f/y, Advillin^Cre; Shank3^f/f) and control littermates, 30 minutes after an intraperitoneal injection of either saline (vehicle) the peripherally restricted Compound 5 (2 mg/kg).
FIG. 4 is a graph showing the percent inhibition of an acoustic startle response (PPI) to a 125-dB noise (pulse), when the startle noise was preceded by a light air puff (prepulse, 0.9 PSI, 50 ms) at an interstimulus interval of 250 ms. Values were expressed as percent of control littermates' performance. Experiments were performed in mutant mice (Advillin^Cre; Mecp2^f/y, Advillin^Cre; Shank3^f/f, Advillin^Cre; Gabrb^3f/+, Advillin^Cre; Gabrb3^f/f) and control littermates, 30 minutes after an intraperitoneal injection of either saline (vehicle) or Compound 5 at 2 mg/kg. […] Two-way ANOVA, with post-hoc Holm-Sidak's test, *, p<0.05, when comparing mutants to control within same treatment; t, p<0.05, or #, p<0.10, when comparing the same genotype across different treatments.
FIG. 5 is a graph showing the response to a light air puff stimulus alone (0.9 PSI, 50 ms). Responses were expressed as a percent of startle response to a 125-B noise. Experiments were performed in mutant mice (Advillin^Cre; Mecp2^f/y, Advillin^Cre; Shank3^f/f, Advillin^Cre; Gabrb3^f/+, Advillin^Cre; Gabrb3^f/f) and control littermates, 30 minutes after an intraperitoneal injection of either saline (vehicle) or Compound 5 at 2 mg/kg. […] Two-way ANOVA, with post-hoc Holm-Sidak's test, *, p<0.05, when comparing mutants to control within same treatment; f, p<0.05, when comparing the same genotype across different treatments. […]
FIGS. 1 and 4 show the percent inhibition of an acoustic startle response (PPI) to a 125-dB noise (pulse), when the startle noise was preceded by a light aft puff (prepulse, 0.9 PSI, 50 ms) at an interstimulus interval of 250 ms. Values were expressed as percent of control littermates' performance. […]

[2] = target: T1, Transporter, GABA (Rattus norvegicus, UniProt P23978); assay: GABA transporter radioligand binding assay (Cat # 226400)
T1 construct: tissue Eurofins Panlabs 226400; host or cells: rat brain membranes (own knowledge of the vendor's assay and of the cited Shank et al. 1990 method)
Method: The activity of compound Compound 5 was evaluated in Radioligand Binding assays. Methods employed herein have been adapted from the scientific literature to maximize reliability and reproducibility. Reference standards were run as an integral part of each assay to ensure the validity of the results obtained. Where presented, IC50 values were determined by a non-linear, least squares regression analysis using MathIQ™ (ID Business Solutions Ltd., UK). Where inhibition constants (K) are presented, the Ki values were calculated using the equation of Cheng and Prusoff (Cheng, Y., Prusoff, W. H., Biochem. Pharmacol. 22:3099-3108, 1973) using the observed IC50 of the tested compound, the concentration of radioligand employed in the assay, and the historical values for the KD of the ligand (obtained experimentally at Eurofins Panlabs, Inc.). Where presented, the Hill coefficient (nH), defining the slope of the competitive binding curve, was calculated using MathIQ™. […] Where IC50, Ki and/or nH data are presented without Standard Error of the Mean (SEM), data are insufficient to be quantitative.
Biochemical assay results are presented as the percent inhibition of specific binding or activity. All other results are expressed in terms of the quantitation method of that assay. For primary assays, only the lowest concentration with a significant response, judged by the criteria of the assay, is shown in this summary. […] Unless otherwise requested, primary screening in duplicate with quantitative data (e.g., IC50±SEM, Ki ±SEM and nH) are shown where applicable for individual requested assays.
J Neurochem. 54:2007-2015.

[3] = Advillin^Cre, Mecp2^f/y, Shank3^f/f, Gabrb3^f/+ mice, 30 min, vs saline

NC1C=C(C(=O)O)CCC1 (stereo not drawn) [Compound 5, 3-aminocyclohex-1-enecarboxylic acid hydrochloride]
tactile (hairy skin) sensitivity in mice with complete loss of GABA-A receptors on peripheral somatosensory neurons ([1]; Advillin^Cre, Gabrb3^f/f mice, 30 min, hydrochloride, 2 mg/kg): do not show a reduction in tactile sensitivity; also recorded: did not show any improvements in hairy skin sensitivity
responsivity to a light air puff stimulus alone (0.9 PSI, 50 ms) [1, 3]: reduced responsivity to an air puff stimulus
tactile PPI performance [1, 3]: reduced tactile PPI performance
hairy skin hypersensitivity (tactile PPI assay and response to air puff stimulus alone) ([1]; Mecp2, Shank3 and Gabrb3 heterozygous conditional mutant mice, 30 minutes after injection, hydrochloride, 2 mg/kg): reduces hairy skin over-reactivity; also recorded: significantly reduced hairy skin hypersensitivity; also recorded: reduces hairy skin hypersensitivity
motor behaviors or sedation, average startle amplitude elicited by a 125-dB noise ([1]; mutant mice and control littermates, 30 min, hydrochloride, 2 mg/kg): did not have negative effects on motor behaviors or sedation; also recorded: no significant differences between any genotypes or treatment groups
GABA transporter inhibition (in words) [2]: potent GABA transporter inhibitor
IC50 [2]: 28.1 µM
Ki [2]: 27.5 µM
inhibition at 30 µM [2]: 52%
inhibition at 0.1 µM ([2]; Conc. 0.1 μM): -10%
inhibition at 0.3 µM ([2]; Conc. 0.3 μM): 3%
inhibition at 1 µM ([2]; Conc. 1 μM): -1%
inhibition at 3 µM ([2]; Conc. 3 μM): 2%
inhibition at 10 µM ([2]; Conc. 10 μM): 19%
inhibition at 100 µM ([2]; Conc. 100 μM): 86%
inhibition at 300 µM ([2]; Conc. 300 μM): 97%
inhibition at 1000 µM ([2]; Conc. 1 mM): 104%
nH (Hill coefficient) ([2]; slope of competitive binding curve): 1.47
